Laboratory results taken from ChEMBL document CHEMBL4152357, “Efflux pump inhibition by 11H-pyrido[2,1-b]quinazolin-11-one analogues in mycobacteria” (Bioorg Med Chem, 2018).
≈ marks a conversion by molar mass, not a printed value. Calls of active or inactive are those of the source. The rule behind the calls is not given here.

Columns and labels:
[1] = target: T1, Multidrug efflux pump LfrA (Mycobacterium smegmatis (strain ATCC 700084 / mc(2)155)) (UniProt A0R5K5); test: Inhibition of LfrA in Mycobacterium smegmatis MC2 155 ATCC 700084 assessed as decrease in EtBr MIC at 16 ug/ml after 72 hrs by MTT assay relative to control; details: Mycolicibacterium smegmatis MC2 155
T1 sequence (whole entry): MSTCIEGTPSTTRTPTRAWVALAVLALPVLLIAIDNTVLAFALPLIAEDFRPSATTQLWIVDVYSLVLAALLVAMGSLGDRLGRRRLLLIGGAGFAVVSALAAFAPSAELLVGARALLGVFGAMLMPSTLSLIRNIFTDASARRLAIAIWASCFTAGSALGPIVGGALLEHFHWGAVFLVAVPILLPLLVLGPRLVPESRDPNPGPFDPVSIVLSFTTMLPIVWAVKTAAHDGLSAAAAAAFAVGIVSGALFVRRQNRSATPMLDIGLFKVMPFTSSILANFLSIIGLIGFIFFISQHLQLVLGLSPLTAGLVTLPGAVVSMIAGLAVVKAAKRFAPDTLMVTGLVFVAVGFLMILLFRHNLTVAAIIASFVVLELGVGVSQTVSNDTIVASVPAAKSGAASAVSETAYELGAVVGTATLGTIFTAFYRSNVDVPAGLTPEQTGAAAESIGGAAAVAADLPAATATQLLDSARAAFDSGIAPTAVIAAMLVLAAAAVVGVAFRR

[2] = system: Mycolicibacterium smegmatis; test: Growth inhibition of Mycobacterium smegmatis MC2 155 ATCC 700084 after 72 hrs by MTT assay; format: organism-based
[3] = target: T1, Multidrug efflux pump LfrA (Mycobacterium smegmatis (strain ATCC 700084 / mc(2)155)); test: Inhibition of LfrA in Mycobacterium smegmatis MC2 155 ATCC 700084 assessed as increase in EtBr accumulation at 12.5 ug/ml measured every 5 mins for 35 mins by fluorometric analysis; details: Mycolicibacterium smegmatis MC2 155
[4] = target: T1, Multidrug efflux pump LfrA (Mycobacterium smegmatis (strain ATCC 700084 / mc(2)155)); test: Inhibition of LfrA in Mycobacterium smegmatis MC2 155 ATCC 700084 assessed as decrease in norfloxacin MIC at 0.0004 ug/ml after 72 hrs by MTT assay relative to control; details: Mycolicibacterium smegmatis MC2 155
[5] = target: T1, Multidrug efflux pump LfrA (Mycobacterium smegmatis (strain ATCC 700084 / mc(2)155)); test: Inhibition of LfrA in Mycobacterium smegmatis MC2 155 ATCC 700084 assessed as increase in norfloxacin accumulation at 12.5 ug/ml measured every 5 mins for 35 mins by fluorometric analysis; details: Mycolicibacterium smegmatis MC2 155
[6] = target: T1, Multidrug efflux pump LfrA (Mycobacterium smegmatis (strain ATCC 700084 / mc(2)155)); test: Inhibition of LfrA in Mycobacterium smegmatis MC2 155 ATCC 700084 assessed as decrease in norfloxacin MIC at 25 ug/ml after 72 hrs by MTT assay relative to control; details: Mycolicibacterium smegmatis MC2 155
CC-1 = test: Cytotoxicity against rat CC1 cells assessed as decrease in cell survival at 200 ug/ml after 24 hrs by Alamar blue reduction assay relative to control; format: cell-based; details: cc-1, 24 h
[7] = target: T1, Multidrug efflux pump LfrA (Mycobacterium smegmatis (strain ATCC 700084 / mc(2)155)); test: Inhibition of LfrA in Mycobacterium smegmatis MC2 155 ATCC 700084 assessed as increase in norfloxacin accumulation at 25 ug/ml measured every 5 mins for 35 mins by fluorometric analysis; details: Mycolicibacterium smegmatis MC2 155
[8] = Cytotoxicity against rat CC1 cells assessed as cell survival at 100 ug/ml after 24 hrs by Alamar blue reduction assay relative to control; format: cell-based, CC-1; details: read-out: Survival
[9] = Cytotoxicity against rat CC1 cells assessed as cell survival at 50 ug/ml after 24 hrs by Alamar blue reduction assay relative to control; format: cell-based, CC-1; details: read-out: Survival
[10] = target: T1, Multidrug efflux pump LfrA (Mycobacterium smegmatis (strain ATCC 700084 / mc(2)155)); test: Inhibition of LfrA in Mycobacterium smegmatis MC2 155 ATCC 700084 assessed as potentiation of norfloxacin-induced bactericidal activity at 25 ug/ml after 24 to 48 hrs; details: Mycolicibacterium smegmatis MC2 155
[11] = target: T1, Multidrug efflux pump LfrA (Mycobacterium smegmatis (strain ATCC 700084 / mc(2)155)); test: Inhibition of LfrA in Mycobacterium smegmatis MC2 155 ATCC 700084 assessed as decrease in norfloxacin MIC at 50 ug/ml after 72 hrs by MTT assay relative to control; details: Mycolicibacterium smegmatis MC2 155
[12] = target: T1, Multidrug efflux pump LfrA (Mycobacterium smegmatis (strain ATCC 700084 / mc(2)155)); test: Inhibition of LfrA in Mycobacterium smegmatis MC2 155 ATCC 700084 assessed as potentiation of EtBr-induced bactericidal activity at 100 ug/ml after 24 hrs; details: Mycolicibacterium smegmatis MC2 155
[13] = target: T1, Multidrug efflux pump LfrA (Mycobacterium smegmatis (strain ATCC 700084 / mc(2)155)); test: Inhibition of LfrA in Mycobacterium smegmatis MC2 155 ATCC 700084 assessed as decrease in EtBr MIC at 100 ug/ml after 72 hrs by MTT assay relative to control; details: Mycolicibacterium smegmatis MC2 155
[14] = target: T1, Multidrug efflux pump LfrA (Mycobacterium smegmatis (strain ATCC 700084 / mc(2)155)); test: Inhibition of LfrA in Mycobacterium smegmatis MC2 155 ATCC 700084 assessed as increase in EtBr accumulation at 25 ug/ml measured every 5 mins for 35 mins by fluorometric analysis; details: Mycolicibacterium smegmatis MC2 155
[15] = target: T1, Multidrug efflux pump LfrA (Mycobacterium smegmatis (strain ATCC 700084 / mc(2)155)); test: Inhibition of LfrA in Mycobacterium smegmatis MC2 155 ATCC 700084 assessed as increase in EtBr accumulation at 50 ug/ml measured every 5 mins for 35 mins by fluorometric analysis; details: Mycolicibacterium smegmatis MC2 155
[16] = target: T1, Multidrug efflux pump LfrA (Mycobacterium smegmatis (strain ATCC 700084 / mc(2)155)); test: Inhibition of LfrA in Mycobacterium smegmatis MC2 155 ATCC 700084 assessed as potentiation of norfloxacin-induced bactericidal activity at 12.5 ug/ml after 48 hrs; details: Mycolicibacterium smegmatis MC2 155
[17] = target: T1, Multidrug efflux pump LfrA (Mycobacterium smegmatis (strain ATCC 700084 / mc(2)155)); test: Inhibition of LfrA in Mycobacterium smegmatis MC2 155 ATCC 700084 assessed as potentiation of norfloxacin-induced bactericidal activity at 100 ug/ml after 48 hrs; details: Mycolicibacterium smegmatis MC2 155
[18] = target: T1, Multidrug efflux pump LfrA (Mycobacterium smegmatis (strain ATCC 700084 / mc(2)155)); test: Inhibition of LfrA in Mycobacterium smegmatis MC2 155 ATCC 700084 assessed as decrease in EtBr MIC at 0.78 ug/ml after 72 hrs by MTT assay relative to control; details: Mycolicibacterium smegmatis MC2 155
[19] = target: T1, Multidrug efflux pump LfrA (Mycobacterium smegmatis (strain ATCC 700084 / mc(2)155)); test: Inhibition of LfrA in Mycobacterium smegmatis MC2 155 ATCC 700084 assessed as decrease in norfloxacin MIC at 12.5 ug/ml after 72 hrs by MTT assay relative to control; details: Mycolicibacterium smegmatis MC2 155
[20] = target: T1, Multidrug efflux pump LfrA (Mycobacterium smegmatis (strain ATCC 700084 / mc(2)155)); test: Inhibition of LfrA in Mycobacterium smegmatis MC2 155 ATCC 700084 assessed as potentiation of EtBr-induced bactericidal activity at 2 ug/ml after 48 hrs; details: Mycolicibacterium smegmatis MC2 155
[21] = target: T1, Multidrug efflux pump LfrA (Mycobacterium smegmatis (strain ATCC 700084 / mc(2)155)); test: Inhibition of LfrA in Mycobacterium smegmatis MC2 155 ATCC 700084 assessed as potentiation of EtBr-induced bactericidal activity at 2 ug/ml after 24 hrs; details: Mycolicibacterium smegmatis MC2 155
[22] = target: T1, Multidrug efflux pump LfrA (Mycobacterium smegmatis (strain ATCC 700084 / mc(2)155)); test: Inhibition of LfrA in Mycobacterium smegmatis MC2 155 ATCC 700084 assessed as decrease in EtBr MIC at 3.125 ug/ml after 72 hrs by MTT assay relative to control; details: Mycolicibacterium smegmatis MC2 155

Work on N#CC(C#N)=NNc1cccc(Cl)c1 [CARBONYL CYANIDE M-CHLOROPHENYLHYDRAZONE] yielded a fold change (FC) [1] of 2, a fractional inhibitory concentration index (FICI) [1] of 0.5 and an MIC [2] of 25 µg/mL (≈ 122 µM). For the same compound, the inhibition [3] was “Active”, the fold change (FC) [4] was 32 and the fractional inhibitory concentration index (FICI) [4] was 0.03. For the same compound, the Activity [5] was 1000 FU.

Work on Cc1cccn2c(=O)c3ccc(Br)cc3nc12 yielded an MIC [2] of 200 µg/mL (≈ 692 µM), a fold change (FC) [6] of 4 and a fractional inhibitory concentration index (FICI) [6] of 0.37.

Work on O=c1c2cccc(Cl)c2nc2ccccn12 yielded an Activity (CC-1) of over 50%, an Activity [7] of 3000 FU and a viability at 24 h, 100 ug/ml [8] of 99%. For the same compound, the MIC [2] was 200 µg/mL (≈ 867 µM), the fold change (FC) [6] was 8 and the fractional inhibitory concentration index (FICI) [6] was 0.25. It also gave a viability at 24 h, 50 ug/ml [9] of 100% and an Activity (deltalog10CFU/ml) [10] of over 3.

O=c1c2cccc(Cl)c2nc2ccc(F)cn12 showed an Activity (CC-1) of over 50%, a fold change (FC) [11] of 4 and a fractional inhibitory concentration index (FICI) [11] of 0.55. The inhibition [12] was “Active”, the fold change (FC) [13] was 8 and the fractional inhibitory concentration index (FICI) [13] was 0.62. The viability at 24 h, 100 ug/ml [8] was 86%, the MIC [2] was 200 µg/mL (≈ 804 µM) and the inhibition [14] was “Active”. For the same compound, the Activity [15] was over 500 FU and the viability at 24 h, 50 ug/ml [9] was 84%.

Compound O=c1c2cccc(F)c2nc2ccccn12 has an Activity (deltalog10CFU/ml) [16] of 4, an Activity (CC-1) of over 50% and an Activity [7] of 3000 FU. The Activity (deltalog10CFU/ml) [17] was 4, the fold change (FC) [18] was 2 and the fractional inhibitory concentration index (FICI) [18] was 0.3. The viability at 24 h, 100 ug/ml [8] was 93%, the MIC [2] was 200 µg/mL (≈ 934 µM) and the viability at 24 h, 50 ug/ml [9] was 96%. It also gave a fold change (FC) [19] of 16 and a fractional inhibitory concentration index (FICI) [19] of 0.12.

With O=c1c2cccc(Cl)c2nc2c3ccccc3ccn12 the fold change (FC) [13] was 2, the fractional inhibitory concentration index (FICI) [13] was 1 and the MIC [2] was 200 µg/mL (≈ 712 µM). The fold change (FC) [6] was 4 and the fractional inhibitory concentration index (FICI) [6] was 0.37.

With Cc1cccn2c(=O)c3cccc(Cl)c3nc12 the Activity (CC-1) was over 50%, the Activity (deltalog10CFU/ml) [20] was over 3 and the inhibition [7] was “Active”. For the same compound, the Activity (deltalog10CFU/ml) [21] was 7, the fold change (FC) [13] was 8 and the fractional inhibitory concentration index (FICI) [13] was 0.62. The viability at 24 h, 100 ug/ml [8] was 42%, the MIC [2] was 200 µg/mL (≈ 817 µM) and the fold change (FC) [6] was 4. For the same compound, the fractional inhibitory concentration index (FICI) [6] was 0.37, the inhibition [14] was “Active” and the Activity [15] was 400 FU. It also gave a viability at 24 h, 50 ug/ml [9] of 40%.

Cc1ccn2c(=O)c3cccc(Cl)c3nc2c1 gave a fold change (FC) [22] of 2, a fractional inhibitory concentration index (FICI) [22] of 0.5 and an MIC [2] of 200 µg/mL (≈ 817 µM). For the same compound, the fold change (FC) [6] was 4 and the fractional inhibitory concentration index (FICI) [6] was 0.37.

With O=c1c2ccccc2nc2c(F)cc(F)cn12 the Activity (CC-1) was over 50%, the inhibition [12] was “Active” and the fold change (FC) [13] was 16. The fractional inhibitory concentration index (FICI) [13] was 0.5, the viability at 24 h, 100 ug/ml [8] was 52% and the MIC [2] was 200 µg/mL (≈ 861 µM). The inhibition [14] was “Active”, the Activity [15] was over 255 FU and the viability at 24 h, 50 ug/ml [9] was 80%. For the same compound, the fold change (FC) [19] was 4 and the fractional inhibitory concentration index (FICI) [19] was 0.3.
